#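 All cell lines were grown in 96-well plates and treated with compound for 48 hours. GI50: concentration for 50% inhibition of growth.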 Active and inactive are the calls of the source. Cut-off read from the data, not from the text of the source: active = GI50 up to about 1.1 µM and inactive = higher.
# Tests used:
# Experiment in all cases: NCI anticancer screen, dose series, 48 h
# [1] = tested on: HT-29
# [2] = tested on: NCI-H226
# [3] = tested on: OVCAR-8
# [4] = tested on: KM-20L2
# [5] = tested on: HOP-18
# [6] = tested on: SK-MEL-5
# [7] = tested on: DLD-1
# [8] = tested on: A498
# [9] = tested on: CCRF-CEM
# [10] = tested on: IGROV-1
# [11] = tested on: K562
# [12] = tested on: UACC-62
# [13] = tested on: UACC-257
# [14] = tested on: UO-31
# [15] = tested on: SF-295
# [16] = tested on: DMS-114
# [17] = tested on: OVCAR-3
# [18] = tested on: OVCAR-5
# [19] = tested on: RXF 393
# [20] = tested on: XF498
# [21] = tested on: LXFL 529
# [22] = tested on: KM12
# [23] = tested on: Malme-3M
# [24] = tested on: EKVX
# [25] = tested on: TK-10
# [26] = tested on: NCI-H460
# [27] = tested on: DMS-273
# [28] = tested on: SN12C
# [29] = tested on: SW-620
# [30] = tested on: MOLT-4
# [31] = tested on: SNB-75
# [32] = tested on: M19-MEL
# [33] = tested on: SF-268
# [34] = tested on: SK-MEL-2
# [35] = tested on: SF-539
# [36] = tested on: COLO 205
# [37] = tested on: A549
# [38] = tested on: LOX IMVI
# [39] = tested on: ACHN
# [40] = tested on: NCI-H522
# [41] = tested on: SNB-19
# [42] = tested on: SNB-78
# [43] = tested on: 786-0
# [44] = tested on: SK-MEL-28
# [45] = tested on: HCT-15
# [46] = tested on: RPMI-8226
# [47] = tested on: U-251
# [48] = tested on: HCT-116
# [49] = tested on: RXF 631
# [50] = tested on: OVCAR-4
# [51] = tested on: NCI-H23
# [52] = tested on: SK-OV-3
# [53] = tested on: PC-3
# [54] = tested on: HL-60
# [55] = tested on: T47D
# [56] = tested on: MCF7
# [57] = tested on: M14
# [58] = tested on: HOP-62
# [59] = tested on: DU-145
# [60] = tested on: MDA-MB-231
# [61] = tested on: HOP-92
# [62] = tested on: CAKI-1
# [63] = tested on: HCC 2998
# [64] = tested on: SR
# [65] = tested on: MDA-N
# [66] = tested on: BT-549
# [67] = tested on: Hs-578T
compound,measurement,setting,value
c1ccc(NCn2cnc3ccccc32)cc1,GI50,[1],36.3 µM (inactive)
same,GI50,[2],> 100 µM (inactive)
same,GI50,[3],> 100 µM (inactive)
same,GI50,[4],6.04 µM (inactive)
same,GI50,[5],> 100 µM (inactive)
same,GI50,[6],> 100 µM (inactive)
same,GI50,[7],29.2 µM (inactive)
same,GI50,[8],> 100 µM (inactive)
same,GI50,[9],37.1 µM (inactive)
same,GI50,[10],> 100 µM (inactive)
same,GI50,[11],20.8 µM (inactive)
same,GI50,[12],7.45 µM (inactive)
same,GI50,[13],> 100 µM (inactive)
same,GI50,[14],> 100 µM (inactive)
same,GI50,[15],> 100 µM (inactive)
same,GI50,[16],> 100 µM (inactive)
same,GI50,[17],> 100 µM (inactive)
same,GI50,[18],> 100 µM (inactive)
same,GI50,[19],> 100 µM (inactive)
same,GI50,[20],> 100 µM (inactive)
same,GI50,[21],> 100 µM (inactive)
same,GI50,[22],> 100 µM (inactive)
same,GI50,[23],> 100 µM (inactive)
same,GI50,[24],> 100 µM (inactive)
same,GI50,[25],> 100 µM (inactive)
same,GI50,[26],> 100 µM (inactive)
same,GI50,[27],> 100 µM (inactive)
same,GI50,[28],> 100 µM (inactive)
same,GI50,[29],35.6 µM (inactive)
same,GI50,[30],> 100 µM (inactive)
same,GI50,[31],56.9 µM (inactive)
same,GI50,[32],> 100 µM (inactive)
same,GI50,[33],74.8 µM (inactive)
same,GI50,[34],> 100 µM (inactive)
same,GI50,[35],> 100 µM (inactive)
same,GI50,[36],> 100 µM (inactive)
same,GI50,[37],> 100 µM (inactive)
same,GI50,[38],8.18 µM (inactive)
same,GI50,[39],68.4 µM (inactive)
same,GI50,[40],> 100 µM (inactive)
same,GI50,[41],> 100 µM (inactive)
same,GI50,[42],> 100 µM (inactive)
same,GI50,[43],> 100 µM (inactive)
same,GI50,[44],> 100 µM (inactive)
same,GI50,[45],15.6 µM
same,GI50,[46],25.9 µM (inactive)
same,GI50,[47],> 100 µM (inactive)
same,GI50,[48],74.1 µM (inactive)
same,GI50,[49],> 100 µM (inactive)
same,GI50,[50],> 100 µM (inactive)
same,GI50,[51],> 100 µM (inactive)
same,GI50,[52],> 100 µM (inactive)
CC(C)(C)OC(=O)N[C@H]1CC2(C=C(Cl)C(=O)C(Cl)=C2)OC1=O,GI50,[1],11.5 µM (inactive)
same,GI50,[2],> 59.7 µM (inactive)
same,GI50,[3],17.1 µM (inactive)
same,GI50,[4],20.4 µM (inactive)
same,GI50,[5],16.5 µM (inactive)
same,GI50,[6],19.1 µM (inactive)
same,GI50,[53],17.1 µM (inactive)
same,GI50,[7],3.66 µM (inactive)
same,GI50,[8],4.18 µM (inactive)
same,GI50,[9],1.38 µM (inactive)
same,GI50,[54],2.13 µM (inactive)
same,GI50,[10],18.7 µM (inactive)
same,GI50,[11],2.46 µM (inactive)
same,GI50,[55],14.9 µM (inactive)
same,GI50,[12],16.5 µM (inactive)
same,GI50,[56],6.79 µM (inactive)
same,GI50,[13],13.8 µM (inactive)
same,GI50,[14],18.8 µM (inactive)
same,GI50,[15],21.9 µM (inactive)
same,GI50,[17],14.8 µM (inactive)
same,GI50,[18],19.5 µM (inactive)
same,GI50,[57],14.4 µM (inactive)
same,GI50,[19],10.1 µM (inactive)
same,GI50,[20],19.3 µM (inactive)
same,GI50,[21],11.4 µM (inactive)
same,GI50,[22],17.7 µM (inactive)
same,GI50,[23],11.5 µM (inactive)
same,GI50,[58],> 58.9 µM (inactive)
same,GI50,[24],15.2 µM (inactive)
same,GI50,[25],17.5 µM (inactive)
same,GI50,[26],24.3 µM (inactive)
same,GI50,[27],18.2 µM (inactive)
same,GI50,[28],18.5 µM (inactive)
same,GI50,[59],27.9 µM (inactive)
same,GI50,[29],4.33 µM (inactive)
same,GI50,[30],2.48 µM (inactive)
same,GI50,[31],20.5 µM (inactive)
same,GI50,[60],17.1 µM (inactive)
same,GI50,[32],17.1 µM (inactive)
same,GI50,[61],16.9 µM (inactive)
same,GI50,[33],17.3 µM (inactive)
same,GI50,[34],19.1 µM (inactive)
same,GI50,[35],21.1 µM (inactive)
same,GI50,[36],3.97 µM (inactive)
same,GI50,[37],38.3 µM (inactive)
same,GI50,[38],13.2 µM (inactive)
same,GI50,[39],14.6 µM (inactive)
same,GI50,[40],3.07 µM (inactive)
same,GI50,[41],> 100 µM (inactive)
same,GI50,[42],19.6 µM (inactive)
same,GI50,[62],13.5 µM (inactive)
same,GI50,[63],16.6 µM (inactive)
same,GI50,[43],14.9 µM (inactive)
same,GI50,[44],11.4 µM (inactive)
same,GI50,[64],1.93 µM (inactive)
same,GI50,[65],17.1 µM (inactive)
same,GI50,[45],14.2 µM
same,GI50,[46],2.65 µM (inactive)
same,GI50,[47],20.7 µM (inactive)
same,GI50,[48],14.8 µM (inactive)
same,GI50,[66],16 µM (inactive)
same,GI50,[49],16.6 µM (inactive)
same,GI50,[67],26.4 µM (inactive)
same,GI50,[50],16.3 µM (inactive)
same,GI50,[51],17.3 µM (inactive)
same,GI50,[52],> 46.5 µM (inactive)

# From ChEMBL document CHEMBL1201862, “PubChem BioAssay data set” (2004)
